Laboratory results as given in publication PMC10537229, “Antimicrobial Peptides Originating from Expression Libraries of Aurelia aurita and Mnemiopsis leidyi Prevent Biofilm Formation of Opportunistic Pathogens” (Microorganisms, 2023).
“Also recorded” adds a separate entry of the source.

Key:
P. aeruginosa = assay: Growth of planktonic-growing pathogens (turbidity at 600 nm); assay type: cell-based, Pseudomonas aeruginosa; conditions: 18 h; for turbidity (600 nm), P. aeruginosa: 112.5 µg/mL peptide, LB, 80 rpm, 37 °C, mean of 2 biological x 8 technical replicates, control 1.2788369; for reduction of planktonic growth of P. aeruginosa: 112.5 µg/mL, versus control without peptide
Method: (§1) In addition, the potential growth-inhibiting effects of synthetic peptides were tested on planktonic-growing pathogens. Again, 3 × 10^8 cells/mL diluted in LB medium were aliquoted in 96-well plates (200 µL for each cavity). Synthetic peptides were added to two selected final concentrations of 3.5 µg/mL and 112.5 µg/mL at the beginning of the experiment. MTPs were closed with gas-permeable membranes and gently shaken at 80 rpm and 37 °C (P. aeruginosa, S. aureus, and S. epidermidis) or 30 °C (K. oxytoca) for 18 h. A comparative endpoint determination (growth control, peptide control IDR-1018, and identified peptides) of the turbidity at 600 nm was measured with plate reader Spectra max Plus 384. An unpaired t-test was conducted as a statistical hypothesis test to determine the significance (p-value) of growth differences.

K. oxytoca [1] = assay: as above; assay type: cell-based, Klebsiella oxytoca; conditions: 112.5 µg/mL peptide, LB, 18 h, 80 rpm, 30 °C; mean of 2 biological x 8 technical replicates; control 1.21326667
Method: as §1

S. epidermidis = assay: as above; assay type: cell-based, Staphylococcus epidermidis; conditions: 112.5 µg/mL peptide, LB, 18 h, 80 rpm, 37 °C; mean of 2 biological x 8 technical replicates; control 1.3398
Method: as §1

S. aureus [2] = assay: as above; assay type: cell-based, Staphylococcus aureus; conditions: 18 h; for turbidity (600 nm), S. aureus: 112.5 µg/mL peptide, LB, 80 rpm, 37 °C, mean of 2 biological x 8 technical replicates, control 1.37192917; for reduction of planktonic growth of S. aureus: 112.5 µg/mL, versus control without peptide
Method: as §1

K. oxytoca [3] = assay: Biofilm prevention in vitro assay (crystal violet, static); assay type: cell-based, Klebsiella oxytoca; conditions: 18 h; for effect on K. oxytoca biofilm formation (in words) / reduction of K. oxytoca biofilm formation over concentration range: synthetic peptide 0.4-112.5 µg/mL; for reduction of K. oxytoca biofilm formation over concentration range: maximum or overall reduction; for reduction of K. oxytoca biofilm formation at 112.5 µg/mL: synthetic peptide at highest concentration 112.5 µg/mL
Method: (§2) The opportunistic pathogenic bacteria K. oxytoca (DSM 7342, M5a1-type strain), P. aeruginosa PAO1 (DSM 1707, pathogenic-type strain), S. epidermidis RP62A (DSM 28319, clinical isolate from catheter sepsis), and S. aureus (DSM 11823, clinical isolate) were grown in 5 mL LB medium overnight at below-indicated temperatures. The cell concentrations of the overnight cultures were analyzed with Neubauer cell counting and set to 3 × 10^8 cells/mL using GC minimal medium (with 1% (v/v) glycerol and 0.3% (w/v) casamino acids) for K. oxytoca and Caso bouillon (17 g/L casein peptone, 3 g/L soybean peptone, 5 g/L NaCl, 2.5 g/L K2HPO4, and 2.5 g/L glucose) for the remaining strains in the crystal violet assay. Cultures were aliquoted in 96-well plates (180/195 µL for each cavity). Cell-free size-fractionated cell extracts (20 µL) and synthesized peptides (various concentrations, 5 µL) were added to the cultures. MTPs were closed with gas-permeable membranes (Breathe-Easy®, Diversified Biotech, Dedham, MA, USA) and incubated at 37 °C (P. aeruginosa, S. aureus, and S. epidermidis) or 30 °C (K. oxytoca) for 18 h without shaking. Three biological replicates were performed, each with eight technical replicates. Medium controls were performed for normalization. Biofilm formation was monitored and quantified using the crystal violet assay. Following an 18 h incubation period, the cell cultures were removed, and the wells underwent two washes with H2O. Biofilms that developed and adhered to the surfaces were subjected to staining using 200 μL of a 0.1% crystal violet solution (Carl Roth, Karlsruhe, Germany) for 10 min at room temperature (RT). The stained biofilms were left to air dry after eliminating the crystal violet solution through two H2O washes. A total of 200 μL of 96% ethanol was introduced into each stained well to solubilize the dye, and incubation at RT for 15 min followed. Biofilm formation was assessed by measuring the absorbance of resolved crystal violet at 590 nm with the plate reader Spectra max Plus 384 (Molecular Devices, Ismaning; Germany). The screening procedure is depicted in Figure S1.

P. aeruginosa PAO1 = assay: as above; assay type: cell-based, Pseudomonas aeruginosa; conditions: synthetic peptide 0.4-112.5 µg/mL, 18 h
Method: as §2

S. aureus [4] = assay: as above; assay type: cell-based, Staphylococcus aureus; conditions: synthetic peptide 0.4-112.5 µg/mL, 18 h
Method: as §2

S. epidermidis RP62A = assay: as above; assay type: cell-based, Staphylococcus epidermidis; conditions: 18 h; for reduction of S. epidermidis biofilm formation over concentration range / effect on S. epidermidis biofilm formation (in words): synthetic peptide 0.4-112.5 µg/mL; for reduction of S. epidermidis biofilm formation over concentration range: maximum or range of reduction
Method: as §2

[5] = system: K. oxytoca, P. aeruginosa, S. epidermidis, and S. aureus; assay: Planktonic growth, statements on all pathogens; assay type: cell-based; conditions: 18 h; for effect on planktonic growth (in words), high concentration: 112.5 µg/mL, all strains
Method: as §1

planktonic cells = conditions: weak direct antimicrobial activity on planktonic cells; cited from earlier work
Method: (§3) The biofilm prevention was assayed parallel to the well-described 12 amino acids’ cationic AMP (VRLIVAVRIWRR), named IDR-1018 [19, 47, 48]. This innate defense component is derived from the natural bovine peptide Bactenecin and was reported to show antibiofilm activity against P. aeruginosa, E. coli, Acinetobacter baumannii, K. pneumoniae, Methicillin-resistant S. aureus, Salmonella Typhimurium, and Burkholderia cenocepacia. The inhibitory activity of IDR-1018 is based on the induced dispersal of cells from biofilms at very low peptide concentrations (0.8 µg/mL). The underlying ...

biofilm cells = conditions: cited from earlier work
Method: as §3

K. oxytoca M5aI = assay: Dynamic biofilm formation in microfluidic flow cell (Syto9, CLSM); assay type: cell-based, Klebsiella oxytoca; conditions: peptide 10 ng/channel, GC medium, flow 15 µL/h, 24 h, 30 °C, mean ± SD of four biological x four technical replicates; for biofilm thickness: medium control 11 ± 6 µm; for biofilm volume: medium control 112 ± 62 µm^3
From the text: The microfluidic flow cell system comprises a polymethyl methacrylate corpus with a single channel (1 × 8 × 0.1 mm). Two inlets and one outlet exist. A borosilicate glass (24 × 60 × 0.17 mm; Carl Roth, Karlsruhe, Germany) was fixed with the adhesive Black-Seal silicone (Weicon, Münster, Germany). Microliter syringes (Innovative Labor System GmbH, Stützenbach, Germany) were connected via polytetrafluoroethylene (PTFE) tubes (0.3 mm × 0.6 mm) (Bola, Grünsfeld, Germany) with the in- and outlets and clamped into a syringe pump (Model: 220) (KD Scientific, Holliston, MA, USA). The channel was sterilized by rinsing 70% EtOH for 24 h at a flow rate of 20 µL/h. Afterwards, the remaining ethanol was washed out with sterile water at 20 μL/h for 1 h. Subsequently, the channel was equilibrated with GC medium at 20 μL/h for 2 h. Inoculation was conducted with a cell suspension of 1 × 10^9 cells/mL, generated from an overnight culture of K. oxytoca M5aI. Initial cell adhesion was ensured by incubation at 30 °C for 1 h without any flow. Next, the channel was continuously rinsed at 15 μL/h with GC medium injected within the first inlet. The synthetic peptides IDR-1018 (biofilm-preventing control peptide, [47, 48], BiP_Aa_2, BiP_Aa_5, and BiP_Aa_6 were diluted in GC medium to a concentration of 25 µg/mL and injected within the second inlet. Thus, the final peptide concentration was 12.5 µg/mL, corresponding to 10 ng peptide within the 0.8 µL channel. Biofilm formation was conducted at a flow rate of 15 µL/h for 24 h at 30 °C. The biofilm formation of K. oxytoca M5aI was further studied without adding peptides. Four biological replicates were conducted for each treatment.
Biofilms were stained with the fluorescent dye Syto9 (488 nm) (Life Technologie, Carlsbad, CA, USA) and analyzed using the LSM 700 confocal laser scanning microscope (Zeiss, Oberkochen, Germany). Therefore, the microfluidic flow cells were washed with GC medium at 3 µL/min for 15 min. The channel was then filled with a 1:1000 dilution of the fluorescent dye Syto9 and incubated in the dark at RT for 30 min. Dye residues were removed by rinsing GC medium at 3 μL/min for 15 min. Four image stacks were recorded per flow cell with optical sections of 0.9 µm per z-step. The digital image acquisition, three-dimensional reconstruction, and calculation of the biofilm parameters were performed with the software “Zen Black” (version 14.0.22.201) (Zeiss, Oberkochen, Germany) and the microscopy image analysis software “Imaris” (version 9.9.0) (Oxford Instruments, Abingdon, UK).

[6] = Dimerization of peptide with increasing concentration (preliminary results); assay type: physicochemical

Sequence	turbidity (600 nm), P. aeruginosa (P. aeruginosa)	turbidity (600 nm), K. oxytoca (K. oxytoca [1])	turbidity (600 nm), S. epidermidis (S. epidermidis)	turbidity (600 nm), S. aureus (S. aureus [2])	effect on K. oxytoca biofilm formation (in words) (K. oxytoca [3])	effect on P. aeruginosa biofilm formation (in words) (P. aeruginosa PAO1)	effect on S. aureus biofilm formation (in words) (S. aureus [4])	reduction of S. epidermidis biofilm formation over concentration range (S. epidermidis RP62A)	effect on planktonic growth (in words), high concentration [5]	reduction of K. oxytoca biofilm formation over concentration range (K. oxytoca [3])	reduction of K. oxytoca biofilm formation at 112.5 µg/mL (K. oxytoca [3]; versus biofilm control (100%)) [%]	effect on S. epidermidis biofilm formation (in words) (S. epidermidis RP62A)	biofilm thickness (K. oxytoca M5aI) [µm]	biofilm volume (K. oxytoca M5aI) [µm^3]	reduction of planktonic growth of P. aeruginosa (P. aeruginosa)	reduction of planktonic growth of S. aureus (S. aureus [2])	further results
THSTMNFELHQRSIQSCSPKLL [BiP_Aa_4, synthetic peptide from sORF of A. aurita EST clone 127_8E]	1.281	1.219	1.386	1.347	limited effect	limited effect	limited effect; also recorded: could not interfere with biofilm formation	23–47%	did not significantly inhibit planktonic growth	–	–	–	–	–	–	–	–
VRLIVAVRIWRR [IDR-1018, 12 amino acids' cationic AMP, biofilm-preventing control peptide derived from bovine Bactenecin, reference compound]	1.23	1.187	1.203	1.036	–	no interference; also recorded: almost unaffected	–	–	significantly reduced the planktonic growth of all strains	50%	70	only affected to a minor extent	6 ± 2	32 ± 16	–	–	MIC (planktonic cells): 19 µg/mL; peptide concentration causing cell death of the biofilm cells (biofilm cells; higher concentrations): 10 µg/mL; peptide concentration inducing dispersal of cells from biofilms (biofilm cells; very low peptide concentrations): 0.8 µg/mL; reduction of K. oxytoca biofilm formation at 3.5 µg/mL (K. oxytoca [3]; synthetic peptide 3.5 µg/mL, versus biofilm control (100%), on average): 30%; effect on planktonic growth (in words), low concentration ([5]; 3.5 µg/mL, all pathogens): no effect was revealed
GRTTLYKKVGFFFFF [BiP_Ml_3, synthetic peptide from sORF of M. leidyi EST clone 010_9A]	1.255	1.255	1.367	1.345	no significant effect	no significant effect; also recorded: slight interference	no significant effect; also recorded: could not interfere with biofilm formation	–	–	–	–	growth increase at low peptide doses	–	–	1.5–5%	1.5–5%	reduction of S. epidermidis biofilm formation at 112.5 µg/mL (S. epidermidis RP62A; synthetic peptide at highest concentration 112.5 µg/mL, versus biofilm control (100%)): 38%
TNFTRKFPVINSSPHQWYLKD [BiP_Aa_6, synthetic peptide from sORF of A. aurita EST clone 127_8H]	1.284	1.2508	1.393	1.38	–	initially increased and then gradually decreased, approaching control levels	–	43%	did not significantly inhibit planktonic growth	–	26	–	≤ 8 ± 1	64 ± 36	–	–	reduction of S. aureus biofilm formation over concentration range (S. aureus [4]; maximum or overall reduction): 6–23%
QLFCTKLSPT [BiP_Aa_2, synthetic peptide from sORF of A. aurita EST clone 112_6C]	1.2593	1.204	1.368	1.304	no significant change in biofilm formation until 14.1 µg/mL	negligible impact	negligible impact; also recorded: could not interfere with biofilm formation	45%	–	up to 43%	–	appeared to reverse with increasing concentrations	8 ± 3	34 ± 12	1.5–5%	1.5–5%	aggregation with increasing peptide concentration [6]: dimerization
